Results published in patent US5045566A, “Novel imidate insecticides” (ICI Americas Inc., priority 1989, dated 1991).

How the values were obtained:
Type in all cases: in vivo
[1] = test system: Housefly [Musca domestica]; assay: Housefly contact mortality in dishes (HF), 48 hours; conditions: μg of test compound per 25 female flies
Method in brief: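 Dose range started at 100 μg per 25 female flies and went downward. Insects (1-2 days old) contacted a dried acetone/peanut-oil deposit in dishes; LC50 values come from dosage-mortality curves at 48 h.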

[2] = test system: Tobacco Budworm [Heliothis virescens (Fabricius)] eggs; assay: Tobacco budworm eggs (TBW-E); conditions: percent in solution; 2-day old eggs
Method in brief: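 Paper-towel patches of 2-day-old eggs dipped in acetone solutions of compound (0.1% downward), held on larval rearing medium at 78° F. Mortality scored once all control eggs had hatched and larvae were feeding; LC50 from dosage-mortality curves, expressed as percent compound in solution.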

[3] = test system: Black Bean Aphid [Aphis fabae (Scop.)]; assay: Black bean aphid spray test on nasturtium (BBA), 48 hours; conditions: percent of test compound in sprayed solution
Method in brief: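 LC50, given as percent test compound in the sprayed liquid, was calculated from dosage-mortality curves using concentrations from 0.05% downward. Sprays in 50:50 acetone-water went to runoff on ~5 cm nasturtiums carrying 25-50 aphids of mixed ages, one day after infestation. Deaths were counted 48 h later under greenhouse conditions.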

[4] = test system: Aster Leafhopper [Macrosteles fascifrens (Stal)]; assay: Aster leafhopper on dipped oat seedlings (LH), 48 hours; conditions: percent in solution, adults/nymphs
Protocol: The compounds in Tables 1 and 2 above were tested for insecticidal activity using the following testing procedures. LC50 values, based on the results of these tests and calculated according to dosage-mortality curves, are expressed in Table 3.
Aster Leafhopper [Macrosteles fascifrens (Stal)]
Oat seedlings (Avena sp) were grown in a commercial potting soil in cups. When the plants were approximately 10 cm tall they were thinned to three plants per cup and dipped for 2-3 seconds in 50-50 acetone-water solutions of the test compounds. When the plants had dried, a clear plastic tube was placed over them and the bottom end pressed into the cup. Ten aster leafhopper adults/nymphs were then placed in each tube and the tops of the tubes covered with white organdy cloth. Mortality counts were made after 48 hours. Test concentrations ranged from 0.05% down to that at which 50% mortality occurred. The LC50 values are expressed below in Table 3 under the heading "LH" in terms of the percent of the test compound in the solution.

[5] = test system: Cabbage Looper [Trichoplusia ni (Hubner)]; assay: Cabbage looper leaf dip (CL), 3-5 days; conditions: percent in solution, second-instar larvae
Method in brief: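 Squash cotyledons dipped 2-3 s in compound in 50-50 acetone-water, dried, then infested with 5 second-instar larvae and held at high humidity. Mortality scored after 3-5 days at concentrations from 0.1% downward. LC50 from dosage-mortality curves, expressed as percent compound in solution.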

[6] = test system: Maize weevil [Sitophilus zeamais (Motschulsky)]; assay: Maize weevil on dipped corn seeds (MW), 48 hours; conditions: percent in solution, adult weevils
Method in brief: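 LC50, given as percent of compound in dipping solution, comes from dosage-mortality curves over concentrations descending from 0.01%. Four corn seeds soaked 2-3 s in 50:50 acetone:water solution were dried and held with 10 adult weevils, about 25° C, mortality read after 48 h.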

| Structure (SMILES) | LC50 HF [1] [µg] | LC50 TBW E (eggs) [2] [%] | LC50 BBA [3] [%] | LC50 LH [4] [%] | LC50 CL [5] [%] | LC50 MW [6] [%] |
| --- | --- | --- | --- | --- | --- | --- |
| CC(C)C(=Nc1ccccc1)OCc1cccc(Oc2ccccc2)c1 [Compound 43] | 7 | 0.05 | 0.001 | > 0.05 | 0.018 | > 0.01 |
| Fc1ccc(N=C(OCc2cccc(Oc3ccccc3)c2)C(F)F)cc1 [Compound 50] | 43 | > 0.05 | 0.01 | > 0.05 | 0.02 | > 0.01 |
| CC(C)C(=Nc1ccccc1C(F)(F)F)OCc1cccc(Oc2ccccc2)c1 [Compound 72] | > 100 | > 0.1 | > 0.05 | > 0.05 | 0.08 | > 0.01 |
| CCS(=O)(=O)c1ccc(N=C(OCc2cccc(Oc3ccccc3)c2)C(C)C)cc1Cl [Compound 112] | > 100 | > 0.1 | 0.05 | > 0.05 | 0.025 | > 0.01 |
| Fc1ccc(N=C(OCc2cccc(Oc3ccccc3)c2)C(F)(F)C(F)(F)F)cc1Cl [Compound 117] | 55 | > 0.1 | > 0.05 | 0.0003 | 0.006 | > 0.01 |
| CC(C)C(=Nc1ccc(F)c(Cl)c1)OCc1cccc(Oc2ccccc2F)c1 [Compound 119] | 27 | 0.048 | > 0.05 | 0.0008 | 0.0007 | > 0.01 |
| CC1(C)C(C(=Nc2ccc(F)c(Cl)c2)OCc2cccc(Oc3ccccc3)c2)C1(C)C [Compound 124] | 17 | > 0.1 | > 0.05 | > 0.05 | 0.01 | > 0.01 |
| CC(C)C(=Nc1cccc(Br)c1)OCc1cccc(Oc2ccccc2)c1 [Compound 128] | 4.5 | 0.037 | 0.001 | 0.003 | 0.005 | > 0.01 |
| CC(C)C(=Nc1ccccc1Br)OCc1cccc(Oc2ccccc2)c1 [Compound 132] | 65 | > 0.1 | 0.0025 | > 0.05 | 0.025 | > 0.01 |
| CSc1ccc(N=C(OCc2cccc(Oc3ccccc3)c2)C(C)C)cc1 [Compound 142] | 15 | 0.1 | 0.001 | > 0.05 | 0.005 | > 0.01 |
| COc1cccc(N=C(OCc2cccc(Oc3ccccc3)c2)C(C)C)c1 [Compound 143] | 10 | < 0.1 | 0.002 | 0.006 | 0.002 | > 0.01 |
| COC(=O)c1ccc(N=C(OCc2cccc(Oc3ccccc3)c2)C(C)C)cc1 [Compound 151] | 38 | > 0.1 | 0.006 | > 0.05 | 0.009 | > 0.01 |
| CC(C)C(=Nc1ccc(C(C)(C)C)cc1)OCc1cccc(Oc2ccccc2)c1 [Compound 153] | > 100 | 0.1 | 0.003 | 0.0005 | 0.004 | > 0.01 |
| Cc1cccc(N=C(OCc2cccc(Oc3ccccc3)c2)C(C)C)c1 [Compound 155] | 9 | 0.06 | 0.001 | > 0.05 | 0.004 | > 0.01 |
